The source of these data is patent publication US20020026052A1, “3-cyanoquinolines, 3-cyano-1,6-naphthyridines, and 3-cyano-1,7-naphthyridines as protein kinase inhibitors” (American Home Products Corporation, priority 2000, published 2002).

Where only a bound is given, the exact number is not on record here.

For the molecule `Cn1ccnc1Sc1ccc(Nc2c(C#N)cnc3cc(-c4ccc(CN5CCC(O)CC5)cc4)ccc23)cc1Cl` [Example 134, 4-{3-Chloro-4-[(1-methyl-LH-imidazol-2-yl)sulfanyl]anilino}-7-{4-[(4-hydroxy-1-piperidinyl)methyl]phenyl}-3-quinolinecarbonitrile], the melting point (commonly the temperature, or range, at which the solid turns liquid) was in the range of 230 to 232 °C. With `CN1CCN(Cc2ccc(-c3ccc4c(Nc5ccc(Sc6nccn6C)c(Cl)c5)c(C#N)cnc4c3)cc2)CC1` [Example 135, 4-{3-chloro-4-[(1-methylimidazol-2-yl)sulfanyl]anilino}-7-{4-[(4-methyl-1-piperazinyl)methyl]phenyl}-3-quinolinecarbonitrile], the melting point was in the range of 202 to 203 °C. Next, `Cn1ccnc1Sc1ccc(Nc2c(C#N)cnc3cc(-c4ccc(CN5CCN(C(=O)OC(C)(C)C)CC5)cc4)ccc23)cc1Cl` [Example 137, tert-butyl 4-{4-[4-({3-chloro-4-[(1-methylimidazol-2-yl)sulfanyl]phenyl}amino)-3-cyano-7-quinolinyl]benzyl}-1-piperazinecarboxylate]: 184 to 186 °C; `COc1cc(Nc2c(C#N)cnc3cc(-c4ccc(CN5CC[S+]([O-])CC5)cc4)ccc23)c(Cl)cc1Cl` [Example 151, 4-[(2,4-Dichloro-5-methoxyphenyl)amino]-7-{4-[(1-oxido-4-thiomorpholinyl)methyl]phenyl}-3-quinolinecarbonitrile]: 244 to 247 °C. Molecule `Cn1ccnc1Sc1ccc(Nc2c(C#N)cnc3cc(-c4ccc(CN5CCOCC5)o4)ccc23)cc1Cl` [Example 154, 4-{3-Chloro-4-[(1-methyl-1H-imidazol-2-yl)sulfanyl]anilino}-7-[5-(4-morpholinylmethyl)-2-furyl]-3-quinolinecarbonitrile] registered a melting point of 224 to 226 °C. For the molecule `Cn1ccnc1Sc1ccc(Nc2c(C#N)cnc3cc(-c4ccc(CN5CCN(CCO)CC5)o4)ccc23)cc1Cl` [Example 157, 4-{3-Chloro-4-[(1-methyl-1H-irnidazol-2-yl)sulfanyl]anilino}-7-(5-{[4-(2-hydroxyethyl)-1-piperazinyl]methyl}-2-furyl)-3-quinolinecarbonitrile], the melting point fell in the range of 206 to 209 °C. Next, `Cn1ccnc1Sc1ccc(Nc2c(C#N)cnc3cc(-c4ccc(CN5CCC(O)CC5)s4)ccc23)cc1Cl` [Example 159, 4-{3-Chloro-4-[(1-methyl-1H-imidazol-2-yl)sulfanyl]anilino}-7-{5-[(4-hydroxy-1-piperidinyl)methyl]-2-thienyl}-3-quinolinecarbonitrile]: 147 to 149 °C. Consider `Cn1ccnc1Sc1ccc(Nc2c(C#N)cnc3cc(-c4ccc(CN5CCCCC5)s4)ccc23)cc1Cl` [Example 160, 4-{3-Chloro-4-[(1-methyl-1H-imidazol-2-yl)sulfanyl]anilino}-7-[5-(1-piperidinylmethyl)-2-thienyl]-3-quinolinecarbonitrile], for which the melting point is 100 °C (dec.).

Molecule `Cn1ccnc1Sc1ccc(Nc2c(C#N)cnc3cc(-c4ccc(CN5CCN(CCO)CC5)s4)ccc23)cc1Cl` [Example 161, 4-{3-Chloro-4-[(1-methyl-1H-imidazol-2-yl)sulfanyl]anilino}-7-(5-{[4-(2-hydroxyethyl)-1-piperazinyl]methyl}-2-thienyl)-3-quinolinecarbonitrile] had a melting point of 145 to 147 °C. The molecule `N#Cc1cnc2cc(-c3cc(CN4CCOCC4)c(CN4CCOCC4)s3)ccc2c1Nc1ccc(Oc2ccccc2)cc1` [Example 168, 7-[4,5-Bis(4-morpholinylmethyl)-2-thienyl]-4-(4-phenoxyanilino)-3-quinolinecarbonitrile] had a melting point of 158 to 160 °C.

For `Cn1ccnc1Sc1ccc(Nc2c(C#N)cnc3cc(-c4cc(CN5CCOCC5)c(CN5CCOCC5)s4)ccc23)cc1Cl` [Example 169, 7-[4,5-Bis(4-morpholinylmethyl)-2-thienyl]-4-{3-chloro-4-[(1-methyl-1H-irnidazol-2-yl)sulfanyl]anilino}-3-quinolinecarbonitrile], the melting point was in the range of 173 to 175 °C. Consider `Cn1ccnc1Sc1ccc(Nc2c(C#N)cnc3cc(-c4ccc(C=O)cn4)ccc23)cc1Cl` [Example 170, 4-{3-Chloro-4-[(1-methyl-1H-imidazol-2-yl)sulfanyl]anilino}-7-(5-formyl-2-pyridinyl)-3-quinolinecarbonitrile], for which the melting point was 130 °C (dec.). `CCN1CCN(Cc2ccc(-c3ccc4c(Nc5ccc(Sc6nccn6C)c(Cl)c5)c(C#N)cnc4c3)nc2)CC1` [Example 171, 4-{3-Chloro-4-[(1-methyl-1H-imidazol-2-yl)sulfanyl]anilino}-7-{5-[(4-ethyl-1-piperazinyl)methyl]-2-pyridinyl}-3-quinolinecarbonitrile] returned a melting point of 125 to 130 °C. Molecule `Cn1ccnc1Sc1ccc(Nc2c(C#N)cnc3cc(-c4ccc(CN5CCC(O)CC5)cn4)ccc23)cc1Cl` [Example 172, 4-{3-Chloro-4-[(1-methyl-1H-imidazol-2-yl)sulfanyl]anilino}-7-{5-[(4-hydroxy-1-piperidinyl)methyl]-2-pyridinyl}-3-quinolinecarbonitrile] yielded a melting point of 194 to 196 °C. `Cn1ccnc1Sc1ccc(Nc2c(C#N)cnc3cc(-c4ccc(CN5CCC(N6CCCC6)CC5)cn4)ccc23)cc1Cl` [Example 173, 4-{3-Chloro-4-[(1-methyl-1H-imidazol-2-yl)sulfanyl]anilino}-7-(5-{[4-(1-pyrrolidinyl)-1-piperidinyl]methyl}-2-pyridinyl)-3-quinolinecarbonitrile] showed a melting point of 183 to 185 °C.

`Cn1ccnc1Sc1ccc(Nc2c(C#N)cnc3cc(-c4ccc(CN5CCC(C(=O)O)CC5)cn4)ccc23)cc1Cl` [Example 175, 1-{[6-(4-{3-chloro-4-[(1-methyl-1H-imidazol-2-yl)sulfanyl]anilino}-3-cyano-7-quinolinyl)-3-pyridinyl]methyl}-4-piperidinecarboxylic acid] displayed a melting point of 166 to 168 °C. In the case of `COc1cc(Nc2c(C#N)cnc3cc(-c4ccc(CN5CCC(C(=O)O)CC5)cn4)ccc23)c(Cl)cc1Cl` [Example 177, 1-{6-[3-Cyano-4-(2,4-dichloro-5-methoxyphenylarino)-quinolin-7-yl]-pyridin-3-ylmethyl}-piperidine-4-carboxylic acid], the melting point was 150 °C (dec.). For the molecule `Cn1ccnc1Sc1ccc(Nc2c(C#N)cnc3cc(-c4ccc(Cl)cn4)ccc23)cc1Cl` [Example 178, 4-({3-Chloro-4-[(1-methyl-1H-imidazol-2-yl)sulfanyl]phenyl}amino)-7-(5-chloro-2-pyridinyl)-3-quinolinecarbonitrile], the melting point is 205 to 207 °C.

As for `CCN1CCN(c2ccc(-c3ccc4ncc(C#N)c(Nc5ccc(Sc6nccn6C)c(Cl)c5)c4c3)nc2)CC1` [Example 181, 4-({3-Chloro-4-[(1-methyl-1H-imidazol-2-yl)sulfanyl]phenyl}amino)-6-[5-(4-ethyl-1-piperazinyl)-2-pyridinyl]-3-quinolinecarbonitrile], the melting point is 150 °C (dec.). As to `Cn1ccnc1Sc1ccc(Nc2c(C#N)cnc3ccc(-c4ccc(CN5CCOCC5)cn4)cc23)cc1Cl` [Example 182, 4-({3-Chloro-4-[(1-methyl-1H-imidazol-2-yl)sulfanyl]phenyl}amino)-6-[5-(4-morpholinylmethyl)-2-pyridinyl]-3-quinolinecarbonitrile], the melting point was 238 to 241 °C.

With `CN1CCN(Cc2ccc(-c3ccc4ncc(C#N)c(Nc5ccc(Sc6nccn6C)c(Cl)c5)c4c3)nc2)CC1` [Example 183, 4-({3-Chloro-4-[(1-methyl-1H-imidazol-2-yl)sulfanyl]phenyl}amino)-6-{5-[(4-methyl-1-piperazinyl)methyl]-2-pyridinyl}-3-quinolinecarbonitrile], the melting point lay within 260 to 262 °C. In the case of `Cn1ccnc1Sc1ccc(Nc2c(C#N)cnc3ccc(-c4ccc(N5CCOCC5)nc4)cc23)cc1Cl` [Example 184, 4-({3-Chloro-4-[(1-methyl-1H-imidazol-2-yl)sulfanyl]phenyl}amino)-6-[6-(4-morpholinyl)-3-pyridinyl]-3-quinolinecarbonitrile] it was 276 to 278 °C. On to `COc1cc(Nc2c(C#N)cnc3cc(-c4ccc(N5CCOCC5)nc4)ccc23)c(Cl)cc1Cl` [Example 185, 4-(2,4-Dichloro-5-methoxyanilino)-7-[6-(4-morpholinyl)-3-pyridinyl]-3-quinolinecarbonitrile], for which the melting point is above 260 °C. On to `CN1CCN(Cc2ccc(-c3ccc4c(Nc5ccc(Sc6nccn6C)c(Cl)c5)c(C#N)cnc4c3)nc2)CC1` [Example 189, 4-{3-Chloro-4-[(1-methyl-1H-imidazol-2-yl)sulfanyl]anilino}-7-1-{5-[(4-methyl-1-piperazinyl)methyl]-2-pyridinyl}-3-quinolinecarbonitrile], for which the melting point fell in the range of 197 to 199 °C.

Take `Cn1ccnc1Sc1ccc(Nc2c(C#N)cnc3cc(-c4ccc(N5CCOCC5)nc4)ccc23)cc1Cl` [Example 190, 4-{3-Chloro-4-[(1-methyl-1H-imidazol-2-yl)sulfanyl]anilino}-7-[6-(4-morpholinyl)-3-pyridinyl]-3-quinolinecarbonitrile]: the melting point was above 250 °C. In turn, `CCN1CCN(c2ccc(-c3ccc4c(Nc5ccc(Sc6nccn6C)c(Cl)c5)c(C#N)cnc4c3)cn2)CC1` [Example 195, 4-{3-Chloro-4-[(1-methyl-1H-imidazol-2-yl)sulfanyl]anilino}-7-[6-(4-ethyl-1-piperazinyl)-3-pyridinyl]-3-quinolinecarbonitrile] displayed a melting point of 254 to 256 °C. Turning to `CN1CCN(c2ccc(-c3ccc4c(Nc5ccc(Sc6nccn6C)c(Cl)c5)c(C#N)cnc4c3)cn2)CC1` [Example 196, 4-{3-Chloro-4-[(1-methyl-1H-irnidazol-2-yl)sulfanyl]anilino}-7-[6-(4-methyl-1-piperazinyl)-3-pyridinyl]-3-quinolinecarbonitrile], the melting point lay within 227 to 279 °C. With `CCN1CCN(c2ccc(-c3ccc4c(Nc5cc(OC)c(Cl)cc5Cl)c(C#N)cnc4c3)cn2)CC1` [Example 197, 4-(2,4-Dichloro-5-methoxyanilino)-7-[6-(4-ethyl-1-piperazinyl)-3-pyridinyl]-3-quinolinecarbonitrile], the melting point lay within 264 to 266 °C.
